Laboratory results from patent US20080057134A1, “Antifungal compositions and method” (AgION Technologies, Inc., priority 2006, published 2008).

Test system: Aspergillus niger
Assay: Direct inoculation fungal testing of coated filter paper (modified ASTM G21)
Type: cell-based
Conditions: text summary of Tables 1 and 2, Aspergillus niger

Cc1cc(CC(C)CC(C)(C)C)n(O)c(=O)c1.NCCO (stereo not shown) [picrotone olamine, monoethanolamine salt of hydroxymethyl trimethylpentyl pyridone]
antifungal properties / bioefficacy in words: excellent to good antifungal properties
